Assays:
Assay type in all cases: biochemical
[1] = target: T1, Factor Xa (Homo sapiens, UniProt P00742); experiment: In vitro enzyme assay for specificity: Factor Xa; conditions: 30 min preincubation; substrate S-2765; read-out: FXa IC50 30 Min
T1 construct: purchased Enzyme Research Laboratories, Inc. (South Bend, Ind.)
Experimental: (§1) The ability of compounds to act as a selective inhibitor of matriptase activity was assessed by determining the concentration of test-compound which inhibited the activity of matriptase by 50%, (IC50) as described in Example A, and comparing IC50 value for matriptase to that determined for all or some of the following serine proteases: thrombin, recombinant tissue plasminogen activator (rt-PA), plasmin, activated protein C, chymotrypsin, factor Xa and trypsin.
(§2) The buffer used for all assays was HBSA (10 mM HEPES, pH 7.5, 150 mM sodium chloride, 0.1% bovine serum albumin).
(§3) The assay for IC50 determinations was conducted by combining in appropriate wells of a Corning microtiter plate, 50 microliters of HBSA, 50 microliters of the test compound at a specified concentration (covering a broad concentration range) diluted in HBSA (or HBSA alone for V0 (uninhibited velocity) measurement), and 50 microliters of the enzyme diluted in HBSA. Following a 30 minute incubation at ambient temperature, 50 microliters of the substrate at the concentrations specified below were added to the wells, yielding a final total volume of 200 microliters. The initial velocity of chromogenic substrate hydrolysis was measured by the change in absorbance at 405 nm using a Thermo Max® Kinetic Microplate Reader over a 5 minute period in which less than 5% of the added substrate was utilized. The concentration of added inhibitor which caused a 50% decrease in the initial rate of hydrolysis was defined as the IC50 value.
Factor Xa catalytic activity was determined using the chromogenic substrate S-2765 (N-benzyloxycarbonyl-D-arginine-L-glycine-L-arginine-p-nitro aniline), obtained from DiaPharma Group (Franklin, Ohio). All substrates were reconstituted in deionized water prior to use. […] Purified human Factor X was obtained from Enzyme Research Laboratories, Inc. (South Bend, Ind.) and Factor Xa (FXa) was activated and prepared from it as described [Bock, P. E., Craig, P. A., Olson, S. T., and Singh, P. Arch. Biochem. Biophys. 273:375–388 (1989)]. The enzyme was diluted into HBSA prior to assay in which the final concentration was 0.25 nM.

[2] = target: T2, recombinant serine protease domain of matriptase or MTSP1 (rMAP) (Homo sapiens, UniProt Q9Y5Y6); experiment: Amidolytic assay for inhibition of serine protease activity of matriptase or MTSP1 (rMAP); conditions: 30 min preincubation of compound and rMAP; substrate S-2765
T2 construct: host or cells: Pichia pastoris SMD1168 / pPIC9K-MTSP1
T2 sequence (Q9Y5Y6 615-855): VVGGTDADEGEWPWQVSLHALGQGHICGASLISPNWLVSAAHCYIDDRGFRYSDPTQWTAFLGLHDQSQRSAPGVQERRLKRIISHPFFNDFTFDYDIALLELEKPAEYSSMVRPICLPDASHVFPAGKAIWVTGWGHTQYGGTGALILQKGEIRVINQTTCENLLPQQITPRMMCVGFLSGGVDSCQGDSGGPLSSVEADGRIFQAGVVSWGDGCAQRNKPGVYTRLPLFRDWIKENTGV
Experimental: The ability of the compounds of the present invention to act as inhibitors of rMAP catalytic activity was assessed by determining the inhibitor-induced inhibition of amidolytic activity by the MAP, as measured by IC50 values.
The assay buffer was HBSA (10 mM Hepes, 150 mM sodium chloride, pH 7.4, 0.1% bovine serum albumin). All reagents were from Sigma Chemical Co. (St. Louis, Mo.), unless otherwise indicated.
Two IC50 assays (a) one at either 30-minutes or 60-minutes (a 30-minute or a 60-minute preincubation of test compound and enzyme) and (b) one at 0-minutes (no preincubation of test compound and enzyme) were conducted. […] Following either a 30-minute or a 60-minute incubation at ambient temperature, the assay was initiated by the addition of 50 microliters of the substrate S-2765 (N-α-Benzyloxycarbonyl-D-arginyl-L-glycyl-L-arginine-p-nitroaniline dihydrochloride; DiaPharma Group, Inc.; Franklin, Ohio) to each well, yielding a final assay volume of 200 microliters and a final substrate concentration of 100 μM (about 4-times Km). Before addition to the assay mixture, S-2765 was reconstituted in deionized water and diluted in HBSA. For the IC50 assay at 0 minutes; the same reagents were combined: 50 microliters of HBSA, 50 microliters of the test compound, diluted (covering the identical concentration range) in HBSA (or HBSA alone for uninhibited velocity measurement), and 50 microliters of the substrate S-2765. The assay was initiated by the addition of 50 microliters of rMAP. The final concentrations of all components were identical in both IC50 assays (at 30- or 60- and 0-minute).
The initial velocity of chromogenic substrate hydrolysis was measured in both assays by the change of absorbance at 405 nm using a Thermo Max® Kinetic Microplate Reader (Molecular Devices) over a 5 minute period, in which less than 5% of the added substrate was utilized. The concentration of added inhibitor, which caused a 50% decrease in the initial rate of hydrolysis was defined as the respective IC50 value in each of the two assays (30- or 60-minutes and 0-minute).

[3] = target: T3, human α-thrombin (Homo sapiens, UniProt P00734); experiment: In vitro enzyme assay for specificity: Thrombin (fIIa); conditions: 30 min preincubation; substrate Pefachrome t-PA
T3 construct: Purified human α-thrombin was obtained from Enzyme Research Laboratories, Inc; purchased Enzyme Research Laboratories, Inc
Experimental: as §1, §2, §3
Enzyme activity was determined using the chromogenic substrate, Pefachrome t-PA (CH3SO2-D-hexahydrotyrosine-glycyl-L-Arginine-p-nitroaniline, obtained from Pentapharm Ltd.). The substrate was reconstituted in deionized water prior to use. Purified human α-thrombin was obtained from Enzyme Research Laboratories, Inc. The buffer used for all assays was HBSA (10 mM HEPES, pH 7.5, 150 mM sodium chloride, 0.1% bovine serum albumin).
The initial velocity of Pefachrome t-PA hydrolysis was measured by the change in absorbance at 405 nm using a Thermo Max® Kinetic Microplate Reader over a 5 minute period in which less than 5% of the added substrate was utilized. The concentration of added inhibitor which caused a 50% decrease in the initial rate of hydrolysis was defined as the IC50 value.

[4] = target: T4, human plasmin (Homo sapiens, UniProt P00747); experiment: In vitro enzyme assay for specificity: Plasmin; conditions: 30 min preincubation; substrate S-2366
T4 construct: Purified human plasmin was obtained from Enzyme Research Laboratories, Inc; purchased Enzyme Research Laboratories, Inc
Experimental: as §1, §2, §3
Plasmin catalytic activity was determined using the chromogenic substrate, S-2366 [L-pyroglutamyl-L-prolyl-L-arginine-p-nitroaniline hydrochloride], which was obtained from DiaPharma group. The substrate was made up in deionized water followed by dilution in HBSA prior to the assay in which the final concentration was 300 micromolar (about 2.5-times Km). Purified human plasmin was obtained from Enzyme Research Laboratories, Inc. The enzyme was diluted into HBSA prior to assay in which the final concentration was 1.0 nM.

[5] = target: T5, bovine pancreatic trypsin (Bos taurus, UniProt P00760); experiment: In vitro enzyme assay for specificity: Trypsin; conditions: 30 min preincubation; substrate S-2222; read-out: Thypsin IC50 30 Min
T5 construct: Purified (3×-crystallized; TRL3) bovine pancreatic trypsin was obtained from Worthington Biochemical Corp; purchased Worthington Biochemical Corp. TRL3; host or cells: bovine pancreas
T5 sequence (P00760 24-246): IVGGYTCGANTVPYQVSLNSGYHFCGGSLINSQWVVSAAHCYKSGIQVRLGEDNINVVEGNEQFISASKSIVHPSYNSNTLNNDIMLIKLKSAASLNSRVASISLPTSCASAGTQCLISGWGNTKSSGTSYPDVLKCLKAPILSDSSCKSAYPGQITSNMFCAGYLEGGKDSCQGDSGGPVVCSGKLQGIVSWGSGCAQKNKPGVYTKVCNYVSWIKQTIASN
Experimental: as §1, §2, §3
Trypsin catalytic activity was determined using the chromogenic substrate, S-2222 (benzoyl-L-isoleucine-L-glutamic acid-[gamma-methyl ester]-L-arginine-p-nitroanilide), which was obtained from DiaPharma Group. […] Purified (3×-crystallized; TRL3) bovine pancreatic trypsin was obtained from Worthington Biochemical Corp. The enzyme was reconstituted in deionized water and diluted into HBSA prior to assay in which the final concentration was 0.5 nM.

T1 sequence (P00742 235-488 limits assumed): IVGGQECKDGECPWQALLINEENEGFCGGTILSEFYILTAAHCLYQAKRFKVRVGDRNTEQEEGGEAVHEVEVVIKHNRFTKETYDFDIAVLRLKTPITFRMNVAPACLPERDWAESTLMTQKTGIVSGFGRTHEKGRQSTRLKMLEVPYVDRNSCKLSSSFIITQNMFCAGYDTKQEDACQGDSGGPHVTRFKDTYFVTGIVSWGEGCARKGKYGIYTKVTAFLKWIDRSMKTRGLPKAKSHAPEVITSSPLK
T1 sequence (P00742 41-179 partner limits assumed): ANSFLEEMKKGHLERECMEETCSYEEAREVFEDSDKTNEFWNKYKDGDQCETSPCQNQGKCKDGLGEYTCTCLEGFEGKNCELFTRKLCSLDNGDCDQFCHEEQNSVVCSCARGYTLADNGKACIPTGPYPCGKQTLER
T4 sequence (P00747 581-810 limits assumed): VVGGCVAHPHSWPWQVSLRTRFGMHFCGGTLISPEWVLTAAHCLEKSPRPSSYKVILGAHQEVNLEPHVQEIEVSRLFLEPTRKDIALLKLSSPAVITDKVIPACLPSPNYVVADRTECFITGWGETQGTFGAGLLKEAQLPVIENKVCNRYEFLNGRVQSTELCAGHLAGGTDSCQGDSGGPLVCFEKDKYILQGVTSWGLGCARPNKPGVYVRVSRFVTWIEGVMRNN
T4 sequence (P00747 97-580 partner limits assumed): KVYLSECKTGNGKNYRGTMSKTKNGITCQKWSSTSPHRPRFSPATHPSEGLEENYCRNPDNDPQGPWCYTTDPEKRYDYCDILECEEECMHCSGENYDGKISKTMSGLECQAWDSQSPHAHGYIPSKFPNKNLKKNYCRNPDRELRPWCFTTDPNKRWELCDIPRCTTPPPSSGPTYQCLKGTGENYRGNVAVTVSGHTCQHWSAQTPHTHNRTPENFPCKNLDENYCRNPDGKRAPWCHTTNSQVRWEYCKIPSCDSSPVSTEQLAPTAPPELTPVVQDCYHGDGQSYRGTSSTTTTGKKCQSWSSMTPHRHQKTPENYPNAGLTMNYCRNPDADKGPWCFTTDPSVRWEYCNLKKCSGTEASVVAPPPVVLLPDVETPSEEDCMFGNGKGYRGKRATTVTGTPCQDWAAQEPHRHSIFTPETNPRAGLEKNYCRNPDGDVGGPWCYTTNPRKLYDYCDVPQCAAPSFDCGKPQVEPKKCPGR

## N=C(N)NCCC[C@@H](C=O)NC(=O)CNC(=O)[C@@](N)(CCC(=O)O)Cc1cccc(C(=N)N)c1 [A]
[1]
  IC50: > 2500 nM
[2]
  IC50: < 100 nM
[3]
  IC50: > 2500 nM
[4]
  IC50: 500 to 2500 nM
[5]
  IC50: 250 to 500 nM

## N=C(N)NCCCC(C=O)NC(=O)CNC(=O)C(CCC(=O)O)(Cc1cccc(C(=N)N)c1)NS(=O)(=O)Cc1ccccc1 (stereo not drawn) [B]
[1]
  IC50: > 2500 nM
[2]
  IC50: < 100 nM
[3]
  IC50: 500 to 2500 nM
[4]
  IC50: > 2500 nM
[5]
  IC50: > 2500 nM

## COC(=O)CCC(N)(Cc1cccc(C(=N)N)c1)C(=O)NCC(=O)NC(C=O)CCCNC(=N)N (stereo not drawn) [C]
[1]
  IC50: > 2500 nM
[2]
  IC50: < 100 nM
[3]
  IC50: > 2500 nM
[4]
  IC50: 500 to 2500 nM
[5]
  IC50: 500 to 2500 nM

## COC(=O)N[C@](CCC(=O)O)(Cc1cccc(C(=N)N)c1)C(=O)NCC(=O)N[C@H](C=O)CCCNC(=N)N [D]
[1]
  IC50: > 2500 nM
[2]
  IC50: < 100 nM
[3]
  IC50: > 2500 nM
[4]
  IC50: > 2500 nM
[5]
  IC50: > 2500 nM

## CC(=O)N[C@](CCC(=O)O)(Cc1cccc(C(=N)N)c1)C(=O)NCC(=O)N[C@H](C=O)CCCNC(=N)N [E]
[1]
  IC50: > 2500 nM
[2]
  IC50: < 100 nM
[3]
  IC50: > 2500 nM
[4]
  IC50: > 2500 nM
[5]
  IC50: > 2500 nM

## COC(=O)N[C@](CCC(=O)O)(Cc1cccc(C(=N)N)c1)C(=O)N[C@@H](C)C(=O)N[C@H](C=O)CCCNC(=N)N [F]
[1]
  IC50: > 2500 nM
[2]
  IC50: < 100 nM
[3]
  IC50: > 2500 nM
[4]
  IC50: 500 to 2500 nM
[5]
  IC50: 500 to 2500 nM

## COC(=O)N[C@](CCC(=O)O)(Cc1cccc(C)c1)C(=O)N[C@@H](C)C(=O)N[C@H](C=O)CCCNC(=N)N [G]
[1]
  IC50: > 2500 nM
[2]
  IC50: < 100 nM
[3]
  IC50: > 2500 nM
[4]
  IC50: 500 to 2500 nM
[5]
  IC50: < 100 nM

## CCNC(=O)N[C@](CCC(=O)O)(Cc1cccc(C(=N)N)c1)C(=O)NCC(=O)N[C@H](C=O)CCCNC(=N)N [H]
[1]
  IC50: > 2500 nM
[2]
  IC50: < 100 nM
[3]
  IC50: > 2500 nM
[4]
  IC50: > 2500 nM
[5]
  IC50: > 2500 nM

## COC(=O)N[C@](CCC(=O)O)(Cc1ccccc1)C(=O)NCC(=O)N[C@H](C=O)CCCNC(=N)N [I]
[1]
  IC50: 500 to 2500 nM
[2]
  IC50: < 100 nM
[3]
  IC50: > 2500 nM
[4]
  IC50: > 2500 nM
[5]
  IC50: 500 to 2500 nM

## CCOC(=O)N[C@](CCC(=O)O)(Cc1cccc(C(=N)N)c1)C(=O)NCC(=O)N[C@H](C=O)CCCNC(=N)N [K]
[1]
  IC50: > 2500 nM
[2]
  IC50: < 100 nM
[3]
  IC50: > 2500 nM
[4]
  IC50: > 2500 nM
[5]
  IC50: > 2500 nM

## CC(C)COC(=O)N[C@](CCC(=O)O)(Cc1cccc(C(=N)N)c1)C(=O)NCC(=O)N[C@H](C=O)CCCNC(=N)N [L]
[1]
  IC50: > 2500 nM
[2]
  IC50: < 100 nM
[3]
  IC50: > 2500 nM
[4]
  IC50: > 2500 nM
[5]
  IC50: > 2500 nM

## N=C(N)NCCC[C@@H](C=O)NC(=O)CNC(=O)[C@@](CCC(=O)O)(Cc1cccc(C(=N)N)c1)NC(=O)Oc1ccccc1 [M]
[1]
  IC50: 500 to 2500 nM
[2]
  IC50: < 100 nM
[3]
  IC50: > 2500 nM
[4]
  IC50: > 2500 nM
[5]
  IC50: 250 to 500 nM
